Laboratory results reported in ChEMBL document CHEMBL4842385, “Indirubin Derivatives as Dual Inhibitors Targeting Cyclin-Dependent Kinase and Histone Deacetylase for Treating Cancer” (J Med Chem, 2021).

Legend:
Histone deacetylase 1 = Histone deacetylase 1 (Homo sapiens, UniProt Q13547); test: Inhibition of HDAC1 (unknown origin) measured after 30 mins by fluorescence microplate reader assay
Histone deacetylase 2 = Histone deacetylase 2 (Homo sapiens, UniProt Q92769); test: Inhibition of HDAC2 (unknown origin) measured after 30 mins by fluorescence microplate reader assay
Histone deacetylase 7 = molecular target: T1, Histone deacetylase 7 (Homo sapiens, UniProt Q8WUI4); test: Inhibition of HDAC7 (unknown origin) measured after 30 mins by fluorescence microplate reader assay
T1 sequence (Q8WUI4 whole entry): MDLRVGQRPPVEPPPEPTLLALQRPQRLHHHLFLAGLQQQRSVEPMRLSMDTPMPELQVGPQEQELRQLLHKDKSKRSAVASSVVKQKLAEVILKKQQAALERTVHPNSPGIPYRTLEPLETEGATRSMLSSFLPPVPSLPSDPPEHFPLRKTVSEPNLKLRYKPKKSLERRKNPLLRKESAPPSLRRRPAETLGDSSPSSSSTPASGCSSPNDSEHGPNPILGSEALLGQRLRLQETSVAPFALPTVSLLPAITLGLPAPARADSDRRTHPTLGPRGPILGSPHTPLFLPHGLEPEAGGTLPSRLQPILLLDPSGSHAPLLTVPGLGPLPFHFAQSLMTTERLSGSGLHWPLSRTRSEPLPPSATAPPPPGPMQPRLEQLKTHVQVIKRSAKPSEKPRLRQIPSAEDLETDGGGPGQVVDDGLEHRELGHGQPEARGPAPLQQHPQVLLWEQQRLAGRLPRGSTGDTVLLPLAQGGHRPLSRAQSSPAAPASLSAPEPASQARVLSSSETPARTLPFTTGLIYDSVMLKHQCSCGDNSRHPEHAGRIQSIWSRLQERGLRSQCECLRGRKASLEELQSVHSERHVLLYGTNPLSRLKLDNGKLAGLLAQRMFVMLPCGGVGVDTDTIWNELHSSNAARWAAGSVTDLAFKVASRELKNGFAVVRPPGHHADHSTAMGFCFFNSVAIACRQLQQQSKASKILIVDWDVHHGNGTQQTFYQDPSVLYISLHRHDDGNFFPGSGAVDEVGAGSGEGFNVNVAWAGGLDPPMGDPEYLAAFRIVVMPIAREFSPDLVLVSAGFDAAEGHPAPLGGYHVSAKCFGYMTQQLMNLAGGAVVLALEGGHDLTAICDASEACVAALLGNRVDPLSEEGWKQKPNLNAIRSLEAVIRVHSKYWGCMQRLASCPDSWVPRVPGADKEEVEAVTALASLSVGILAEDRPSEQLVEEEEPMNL

CDK6/cyclin D3 = CDK6/cyclin D3 (Homo sapiens, UniProt Q00534); test: Inhibition of full length human CDK6 (1 to 326 end residues)/N-terminal GST-fusion tagged CyclinD3 (1 to 292 residues) expressed in baculovirus expression system preincubated for 10 mins followed by substrate and ATP addition by mobility shift assay
[1] = molecular target: Histone deacetylase 3/Nuclear receptor corepressor 2 (HDAC3/NCoR2) (Homo sapiens, UniProt O15379); test: Inhibition of C-terminal His-tagged recombinant human HDAC3 (1 to 428 residues)/N-terminal GST-tagged recombinant human NCoR2 (395 to 489 residues) co-expressed in baculovirus infected Sf9 cells measured after 30 mins by fluorescence microplate reader assay
Histone deacetylase 11 = molecular target: T2, Histone deacetylase 11 (Homo sapiens, UniProt Q96DB2); test: Inhibition of recombinant human HDAC11 measured after 30 mins by fluorescence microplate reader assay
T2 sequence (Q96DB2 whole entry): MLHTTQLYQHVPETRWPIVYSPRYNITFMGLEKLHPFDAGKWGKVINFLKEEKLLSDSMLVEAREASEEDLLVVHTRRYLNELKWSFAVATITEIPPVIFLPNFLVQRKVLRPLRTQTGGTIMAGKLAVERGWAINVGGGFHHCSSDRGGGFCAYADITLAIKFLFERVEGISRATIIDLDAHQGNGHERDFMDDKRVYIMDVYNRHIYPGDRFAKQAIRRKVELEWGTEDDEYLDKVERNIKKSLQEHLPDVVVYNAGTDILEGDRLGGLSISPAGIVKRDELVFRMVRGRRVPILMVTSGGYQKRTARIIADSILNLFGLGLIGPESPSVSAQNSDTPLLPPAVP

[2] = molecular target: CDK2/Cyclin A2 (Homo sapiens) (UniProt P24941+P20248); details: dose 100.0 nM, time 10.0 min
CDK2/Cyclin A2 = CDK2/Cyclin A2 (Homo sapiens, UniProt P24941); test: Inhibition of full length human CDK2 (1 to 298 end residues)/N-terminal GST-tagged CyclinA2 (1 to 432 residues) expressed in baculovirus expression system preincubated for 10 mins followed by substrate and ATP addition by mobility shift assay
[3] = molecular target: Histone deacetylase (Homo sapiens) (UniProt Q13547+O15379+Q9UBN7+Q92769+Q9UQL6+Q8WUI4+Q9BY41+Q96DB2+P56524+Q9UKV0+Q969S8); details: HeLa, Nucleus, dose 1000.0 nM, time 1.0 hrs

Chain of Histone deacetylase 1 (Q13547 whole entry): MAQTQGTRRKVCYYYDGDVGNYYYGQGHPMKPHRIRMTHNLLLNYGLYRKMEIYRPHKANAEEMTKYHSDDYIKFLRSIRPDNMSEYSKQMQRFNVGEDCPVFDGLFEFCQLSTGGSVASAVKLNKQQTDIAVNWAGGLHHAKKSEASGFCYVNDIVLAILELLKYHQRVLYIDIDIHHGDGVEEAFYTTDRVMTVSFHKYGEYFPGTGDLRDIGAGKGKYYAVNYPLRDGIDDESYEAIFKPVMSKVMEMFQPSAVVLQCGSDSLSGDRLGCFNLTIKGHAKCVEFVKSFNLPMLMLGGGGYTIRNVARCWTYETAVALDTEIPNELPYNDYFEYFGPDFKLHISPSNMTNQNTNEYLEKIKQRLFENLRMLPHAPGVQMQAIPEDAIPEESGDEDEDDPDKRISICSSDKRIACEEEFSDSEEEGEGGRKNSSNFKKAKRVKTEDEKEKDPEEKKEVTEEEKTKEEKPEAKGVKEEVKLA
Chain of Histone deacetylase 3/Nuclear receptor corepressor 2 (HDAC3/NCoR2) (O15379 whole entry, the tested form may be a part): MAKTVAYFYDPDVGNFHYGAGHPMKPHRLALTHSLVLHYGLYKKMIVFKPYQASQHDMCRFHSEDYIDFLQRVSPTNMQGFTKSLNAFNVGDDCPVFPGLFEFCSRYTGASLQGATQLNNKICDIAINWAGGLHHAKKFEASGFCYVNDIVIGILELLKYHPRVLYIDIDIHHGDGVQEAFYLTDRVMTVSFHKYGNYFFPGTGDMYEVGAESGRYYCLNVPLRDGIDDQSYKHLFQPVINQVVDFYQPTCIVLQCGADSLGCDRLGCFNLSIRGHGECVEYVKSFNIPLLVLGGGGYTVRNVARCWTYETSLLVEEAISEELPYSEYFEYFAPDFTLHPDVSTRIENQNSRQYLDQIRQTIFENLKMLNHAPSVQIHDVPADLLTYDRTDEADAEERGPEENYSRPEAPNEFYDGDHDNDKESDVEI
Chain of Histone deacetylase 3/Nuclear receptor corepressor 2 (HDAC3/NCoR2) (Q9Y618 whole entry, further chain, the tested form may be a part): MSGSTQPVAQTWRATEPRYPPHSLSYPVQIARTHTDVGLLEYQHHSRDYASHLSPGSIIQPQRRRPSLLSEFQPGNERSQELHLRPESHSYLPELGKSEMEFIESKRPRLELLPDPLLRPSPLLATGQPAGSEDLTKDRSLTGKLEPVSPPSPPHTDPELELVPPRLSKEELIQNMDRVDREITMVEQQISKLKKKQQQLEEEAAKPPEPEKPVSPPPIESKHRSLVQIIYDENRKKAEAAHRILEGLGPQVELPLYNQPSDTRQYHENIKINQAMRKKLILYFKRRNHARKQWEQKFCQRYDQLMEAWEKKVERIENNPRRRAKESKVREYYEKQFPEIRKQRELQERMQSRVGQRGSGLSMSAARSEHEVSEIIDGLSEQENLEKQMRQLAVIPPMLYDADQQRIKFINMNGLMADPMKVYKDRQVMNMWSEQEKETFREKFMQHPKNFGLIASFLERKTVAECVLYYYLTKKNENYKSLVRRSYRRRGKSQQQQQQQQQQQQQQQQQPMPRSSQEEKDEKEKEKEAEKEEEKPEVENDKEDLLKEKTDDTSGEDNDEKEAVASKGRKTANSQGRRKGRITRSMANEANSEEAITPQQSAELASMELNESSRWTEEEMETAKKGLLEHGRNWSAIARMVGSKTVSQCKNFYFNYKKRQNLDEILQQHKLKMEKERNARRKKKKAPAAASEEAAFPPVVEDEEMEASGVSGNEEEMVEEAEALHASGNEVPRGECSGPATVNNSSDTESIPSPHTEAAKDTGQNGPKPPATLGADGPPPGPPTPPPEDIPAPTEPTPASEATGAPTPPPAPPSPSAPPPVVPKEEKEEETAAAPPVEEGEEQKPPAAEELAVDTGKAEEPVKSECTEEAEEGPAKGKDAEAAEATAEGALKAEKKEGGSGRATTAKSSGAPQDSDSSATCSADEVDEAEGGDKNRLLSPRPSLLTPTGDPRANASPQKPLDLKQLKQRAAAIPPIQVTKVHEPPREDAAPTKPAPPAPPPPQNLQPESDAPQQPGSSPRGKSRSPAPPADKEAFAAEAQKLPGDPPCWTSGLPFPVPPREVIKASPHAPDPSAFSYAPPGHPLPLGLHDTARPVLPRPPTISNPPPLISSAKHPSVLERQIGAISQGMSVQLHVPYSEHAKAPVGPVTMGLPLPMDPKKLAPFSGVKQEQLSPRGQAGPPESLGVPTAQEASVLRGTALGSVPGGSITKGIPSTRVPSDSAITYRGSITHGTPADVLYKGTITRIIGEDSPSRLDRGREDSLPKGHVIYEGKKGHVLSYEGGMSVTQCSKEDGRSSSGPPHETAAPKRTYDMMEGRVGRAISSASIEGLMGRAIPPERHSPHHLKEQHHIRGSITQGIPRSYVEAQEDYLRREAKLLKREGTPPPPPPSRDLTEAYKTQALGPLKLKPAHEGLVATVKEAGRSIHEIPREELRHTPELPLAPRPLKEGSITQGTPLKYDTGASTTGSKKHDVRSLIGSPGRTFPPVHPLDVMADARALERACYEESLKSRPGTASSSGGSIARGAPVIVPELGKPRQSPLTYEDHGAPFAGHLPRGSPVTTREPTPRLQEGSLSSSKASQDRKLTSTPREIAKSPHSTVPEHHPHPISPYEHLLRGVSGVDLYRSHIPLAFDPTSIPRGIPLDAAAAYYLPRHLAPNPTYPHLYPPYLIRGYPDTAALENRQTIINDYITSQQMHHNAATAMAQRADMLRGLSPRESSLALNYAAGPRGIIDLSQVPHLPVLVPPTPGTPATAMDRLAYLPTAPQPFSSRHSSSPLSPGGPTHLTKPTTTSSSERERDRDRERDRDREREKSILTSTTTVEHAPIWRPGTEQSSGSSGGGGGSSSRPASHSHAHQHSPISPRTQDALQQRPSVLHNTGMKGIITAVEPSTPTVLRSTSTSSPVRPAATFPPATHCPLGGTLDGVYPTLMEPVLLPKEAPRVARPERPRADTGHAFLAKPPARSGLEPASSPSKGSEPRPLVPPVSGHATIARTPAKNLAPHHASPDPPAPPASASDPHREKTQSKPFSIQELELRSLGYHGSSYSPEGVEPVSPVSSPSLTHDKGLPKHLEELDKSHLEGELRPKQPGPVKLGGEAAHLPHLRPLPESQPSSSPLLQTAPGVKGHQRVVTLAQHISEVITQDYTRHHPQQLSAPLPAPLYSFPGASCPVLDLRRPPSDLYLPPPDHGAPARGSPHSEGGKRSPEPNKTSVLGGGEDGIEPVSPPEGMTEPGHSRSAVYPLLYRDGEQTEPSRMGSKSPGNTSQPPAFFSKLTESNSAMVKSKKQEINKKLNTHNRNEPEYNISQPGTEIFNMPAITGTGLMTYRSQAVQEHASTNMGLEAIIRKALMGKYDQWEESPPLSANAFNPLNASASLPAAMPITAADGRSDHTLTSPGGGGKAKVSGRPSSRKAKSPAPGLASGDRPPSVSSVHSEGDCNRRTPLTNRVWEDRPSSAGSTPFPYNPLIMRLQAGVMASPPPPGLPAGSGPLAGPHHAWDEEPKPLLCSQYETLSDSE
Chain of CDK6/cyclin D3 (P30281 whole entry, the tested form may be a part): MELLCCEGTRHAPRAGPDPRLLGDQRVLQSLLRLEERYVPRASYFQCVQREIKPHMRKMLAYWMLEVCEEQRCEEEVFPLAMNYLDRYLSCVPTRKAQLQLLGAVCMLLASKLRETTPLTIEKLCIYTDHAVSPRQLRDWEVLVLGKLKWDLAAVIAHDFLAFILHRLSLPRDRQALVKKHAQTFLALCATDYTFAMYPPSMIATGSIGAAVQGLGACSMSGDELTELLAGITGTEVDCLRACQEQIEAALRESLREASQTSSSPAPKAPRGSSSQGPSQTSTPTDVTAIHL
Chain of CDK6/cyclin D3 (Q00534 whole entry, the tested form may be a part): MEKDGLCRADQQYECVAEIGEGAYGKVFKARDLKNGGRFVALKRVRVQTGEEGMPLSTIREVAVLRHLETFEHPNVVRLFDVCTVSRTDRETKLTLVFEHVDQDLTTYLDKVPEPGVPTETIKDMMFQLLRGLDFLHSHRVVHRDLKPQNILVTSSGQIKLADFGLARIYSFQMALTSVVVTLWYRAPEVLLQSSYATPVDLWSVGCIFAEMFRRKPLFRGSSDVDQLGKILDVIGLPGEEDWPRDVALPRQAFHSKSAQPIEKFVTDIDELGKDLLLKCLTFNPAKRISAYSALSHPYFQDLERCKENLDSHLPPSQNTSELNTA
Chain of Histone deacetylase 2 (Q92769 whole entry): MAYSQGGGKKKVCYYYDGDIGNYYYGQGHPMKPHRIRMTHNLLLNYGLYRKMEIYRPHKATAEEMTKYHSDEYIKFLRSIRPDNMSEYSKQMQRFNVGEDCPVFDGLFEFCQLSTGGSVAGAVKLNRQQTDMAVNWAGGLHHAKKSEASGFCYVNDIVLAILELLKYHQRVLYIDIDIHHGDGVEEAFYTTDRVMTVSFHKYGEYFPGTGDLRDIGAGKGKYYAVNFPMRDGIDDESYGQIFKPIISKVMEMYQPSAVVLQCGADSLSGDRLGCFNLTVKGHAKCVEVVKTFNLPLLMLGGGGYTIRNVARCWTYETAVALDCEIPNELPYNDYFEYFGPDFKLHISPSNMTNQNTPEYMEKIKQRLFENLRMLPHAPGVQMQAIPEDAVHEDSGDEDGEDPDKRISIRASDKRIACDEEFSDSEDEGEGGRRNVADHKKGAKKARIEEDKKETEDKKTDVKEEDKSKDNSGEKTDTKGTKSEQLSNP

IC50 (Histone deacetylase 1) [µM] | IC50 (Histone deacetylase 2) [µM] | IC50 (Histone deacetylase 7) [µM] | IC50 (CDK6/cyclin D3) [µM] | IC50 [1] [µM] | IC50 (Histone deacetylase 11) [µM] | inhibition [2] [%] | IC50 (CDK2/Cyclin A2) [µM] | inhibition [3] [%] | Structure (SMILES)
> 100 | > 100 | > 5 | > 1 | > 100 | > 5 | 4.5 | > 1 | 23 | C#CCN1C(=O)/C(=C2\Nc3ccccc3\C2=N/OCCCC(=O)NO)c2ccccc21
> 5 | > 5 | > 5 | 0.0682 | > 5 | > 5 | 34.9 | 0.119 | 0.1 | O=C(O)CCCO/N=C1/C(=C2/C(=O)Nc3ccccc32)Nc2ccccc21

Structure (SMILES) | IC50 (Histone deacetylase 1) [µM] | IC50 (Histone deacetylase 2) [µM] | IC50 (Histone deacetylase 7) [µM] | IC50 (CDK6/cyclin D3) [µM] | IC50 [1] [µM] | IC50 (Histone deacetylase 11) [µM] | inhibition [2] [%] | IC50 (CDK2/Cyclin A2) [µM] | inhibition [3] [%]
O=C(CCCO/N=C1/C(=C2/C(=O)Nc3ccccc32)Nc2ccccc21)NO | > 5 | > 5 | > 5 | 0.0272 | > 5 | > 5 | 66.8 | 0.0609 | 51
